In patent US8569295B2, “Bicyclic urea compounds” (Merck Patent GmbH, priority 2009, dated 2013):

Assays:
[1] = molecular target: T1, RON kinase (Homo sapiens, UniProt Q04912); experiment: RON kinase biochemical mobility shift assay (Caliper Desktop Profiler); conditions: RON kinase inhibition
T1 construct: purchased Caliper Life Sciences
Protocol: (§1) The Aurora assays described here are performed on two Caliper Life Sciences systems: the LC3000 and the Desktop Profiler. The RON kinase assays are performed on the Desktop Profiler only. These provide data on enzyme activity via measurement of the relative amounts of phosphorylated or unphosphorylated fluorescently labelled substrate peptide at the end of an enzymatic reaction. These different states of peptide are resolved by applying a potential difference across the sample. The presence of the charged phosphate group on the product (as opposed to the substrate) causes a different peptide mobility between the two peptides. This is visualized by excitation of the fluorescent label on the substrate and product peptides and represented as peaks within the analysis software.
(§2) The Desktop Profiler utilizes the same priniciple as the LC3000 for calculating percentage conversion of a substrate to product. Caliper Life Sciences provides proprietary flash frozen pre-made 384 well plates containing selected kinases. Each column in the 384 well plate contains a particular selected kinase. A second plate, the ‘substrate plate’ contains a mix of fluorescently labeled peptide substrate and ATP. These are arranged in columns so that transfer for substrate plate to enzyme plate provides the correct enzyme with the correct substrate/ATP concentration. Compounds are added to a thawed enzyme plate in the desired format, in single concentrations. Reactions are initiated by transfer of the substrate/ATP mix from the substrate plate. The enzyme plate is incubated for 90 minutes at 25 C. The reaction is stopped by addition of 70 ul of Stop Buffer (100 mM HEPES pH 7.5, 0.015% Brij-35, 10 mM EDTA (Sigma, E7889)).
(§3) Reading of the plate in the Profiler is identical to the LC3000, and the ratio between substrate and product peaks provides the activity of the enzyme in that well. This is best represented by a plate heat map which colors each well by percent inhibition as compared to positive and negative controls (no inhibitors and no ATP respectively).

[2] = molecular target: T2, GST-Aurora A (Homo sapiens, UniProt O14965); experiment: Aurora A kinase biochemical mobility shift assay (Caliper LC3000 / Desktop Profiler); conditions: AK A (Aurora kinase A) inhibition
T2 construct: N-terminal GST fusion with full length Aurora A (1-403 amino acids); purchased Carna Biosciences 05-101
T2 sequence (O14965 1-403): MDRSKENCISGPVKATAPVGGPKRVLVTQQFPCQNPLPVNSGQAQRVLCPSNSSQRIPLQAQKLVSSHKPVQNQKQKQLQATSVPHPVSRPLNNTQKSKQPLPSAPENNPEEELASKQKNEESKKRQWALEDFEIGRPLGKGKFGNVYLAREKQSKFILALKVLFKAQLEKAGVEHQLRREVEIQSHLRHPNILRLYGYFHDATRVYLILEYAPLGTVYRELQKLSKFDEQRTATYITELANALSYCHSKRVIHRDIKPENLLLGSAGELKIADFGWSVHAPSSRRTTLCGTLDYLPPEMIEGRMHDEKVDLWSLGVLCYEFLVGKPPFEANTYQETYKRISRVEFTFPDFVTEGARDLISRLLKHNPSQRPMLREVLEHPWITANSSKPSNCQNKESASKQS
Protocol: as §1
In order to measure inhibitor activity of Aurora A inhibitors in the Caliper Life Sciences LC3000, a TTP Mosquito liquid handling instrument is used to place 0.25 ul of the appropriate concentration of inhibitor in 100% DMSO (for a dose response curve calculation) into each well of a 384-well plate. To this reaction components are added to a final volume of 25 ul: • 0.067 ng/ul GST-Aurora A (Carna Biosciences 05-101. N-terminal GST fusion with full length Aurora A (1-403 amino acids), accession number NP_940835.1). • 15 uM ATP (Fluka, 02055) • 1 mM DTT (Sigma, D0632) • 1 mM MgCl2 (Sigma, M1028) • 1 uM substrate peptide (sequence FITC-LRRASLG-(CONH2), synthesized by Tufts Peptide Synthesis service. • 100 mM HEPES pH 7.5 (Calbiochem, 391338) • 0.015% Brij-35 (Sigma, B4184)
The reaction is incubated for 90 min at 25 C, and then stopped by the addition of 70 ul of Stop buffer (100 mM HEPES pH 7.5, 0.015% Brij-35, 10 mM EDTA (Sigma, E7889)).
The plate is read on a Caliper LC3000 in an Off-Chip mobility shift assay format, using the following parameters for a 12-sipper chip: screening pressure −1.8 psi, upstream voltage −2700, downstream voltage −1000. These conditions cause unphosphorylated substrate and phosphorylated product peptide to resolve as separate peaks allowing direct measurement of percentage of conversion of substrate to product. The percent conversion can be plotted against concentration of inhibitor to produce a sigmoidal dose response curve, from which an IC50 can be calculated using XLFit for Microsoft Excel.
as §2, §3

T1 sequence (Q04912 25-1400): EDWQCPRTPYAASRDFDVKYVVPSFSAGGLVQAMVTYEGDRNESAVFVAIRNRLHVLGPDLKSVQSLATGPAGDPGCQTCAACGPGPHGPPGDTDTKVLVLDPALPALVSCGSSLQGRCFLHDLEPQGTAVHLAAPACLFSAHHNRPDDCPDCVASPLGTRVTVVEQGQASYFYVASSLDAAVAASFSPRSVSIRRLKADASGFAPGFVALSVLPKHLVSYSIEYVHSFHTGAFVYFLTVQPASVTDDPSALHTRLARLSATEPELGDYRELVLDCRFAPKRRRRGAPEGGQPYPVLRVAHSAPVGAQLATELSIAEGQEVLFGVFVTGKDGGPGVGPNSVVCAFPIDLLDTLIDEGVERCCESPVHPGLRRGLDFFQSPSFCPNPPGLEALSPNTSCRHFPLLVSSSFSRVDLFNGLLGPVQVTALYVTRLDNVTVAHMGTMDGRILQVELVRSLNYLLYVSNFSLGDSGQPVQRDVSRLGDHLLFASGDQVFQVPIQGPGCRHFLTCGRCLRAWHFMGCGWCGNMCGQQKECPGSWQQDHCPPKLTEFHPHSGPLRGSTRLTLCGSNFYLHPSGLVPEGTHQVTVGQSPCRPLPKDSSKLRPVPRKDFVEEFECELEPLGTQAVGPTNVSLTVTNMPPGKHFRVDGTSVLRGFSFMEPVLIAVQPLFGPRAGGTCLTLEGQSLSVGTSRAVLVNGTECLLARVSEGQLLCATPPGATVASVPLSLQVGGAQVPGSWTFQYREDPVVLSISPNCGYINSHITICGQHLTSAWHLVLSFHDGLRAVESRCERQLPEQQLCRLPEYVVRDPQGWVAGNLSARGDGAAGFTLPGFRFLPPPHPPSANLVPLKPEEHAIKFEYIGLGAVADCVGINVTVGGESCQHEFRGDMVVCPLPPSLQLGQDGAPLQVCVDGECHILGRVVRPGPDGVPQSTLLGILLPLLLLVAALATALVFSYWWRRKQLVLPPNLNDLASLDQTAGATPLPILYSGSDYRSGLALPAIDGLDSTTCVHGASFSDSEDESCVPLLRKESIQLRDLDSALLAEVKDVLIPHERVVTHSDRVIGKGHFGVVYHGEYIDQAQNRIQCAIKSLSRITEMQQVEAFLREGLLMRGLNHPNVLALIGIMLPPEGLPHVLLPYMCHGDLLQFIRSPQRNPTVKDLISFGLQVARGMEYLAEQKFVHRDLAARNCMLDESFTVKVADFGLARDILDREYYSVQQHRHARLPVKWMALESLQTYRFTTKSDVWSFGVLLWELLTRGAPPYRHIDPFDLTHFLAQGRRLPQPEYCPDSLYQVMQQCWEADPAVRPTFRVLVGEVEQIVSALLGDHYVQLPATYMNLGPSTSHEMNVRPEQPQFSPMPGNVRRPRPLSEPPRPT

IC50 [1] [nM]	IC50 [2] [nM]	Structure (SMILES)
10 to 100		O=C(Nc1ccc([N+](=O)[O-])cc1)Nc1ccc(Oc2ccnc3c2CNC(=O)N3)c(F)c1 [Example 272, 1-[3-Fluoro-4-(2-oxo-1,2,3,4-tetrahydro-pyrido[2,3-d]pyrimidin-5-yloxy)-phenyl]-3-(4-nitro-phenyl)-urea]
10 to 100		CCN1Cc2c(Oc3ccc(NC(=O)Nc4cc(C)oc4C(F)(F)F)cc3F)ccnc2NC1=O [Example 268, 1-[4-(3-Ethyl-2-oxo-1,2,3,4-tetrahydro-pyrido[2,3-d]pyrimidin-5-yloxy)-3-fluoro-phenyl]-3-(5-methyl-2-trifluoromethyl-furan-3-yl)-urea]
100 to 1000		O=C1NCc2c(Nc3ccc(OC(F)(F)F)c(Br)c3)ccnc2N1 [Example 195, 5-(3-Bromo-4-trifluoromethoxy-phenylamino)-3,4-dihydro-1H-pyrido[2,3-d]pyrimidin-2-one]
10 to 100		O=C1NCc2c(Oc3ccc(NC(=O)c4cccc(F)c4)cc3F)ccnc2N1 [Example 98, 3-fluoro-N-{3-fluoro-4-[(2-oxo-1,2,3,4-tetrahydropyrido[2,3-d]pyrimidin-5-yl)oxy]phenyl}benzamide]
10 to 100		O=C(Nc1ccc(Oc2ccnc3c2C2OCCCN2C(=O)N3)c(F)c1)c1cccn(-c2ccc(F)cc2)c1=O (centres unmarked) [Example 76, N-{3-fluoro-4-[(6-oxo-3,4,7,11b-tetrahydro-2H,6H-pyrido[2′,3′:4,5]pyrimido[6,1-b][1,3]oxazin-11-yl)oxy]phenyl}-1-(4-fluorophenyl)-2-oxo-1,2-dihydropyridine-3-carboxamide]
10 to 100		O=C(Nc1cccc(C(F)(F)F)c1)Nc1ccc(Oc2ccnc3c2CNC(=O)N3)c(F)c1 [Example 270, 1-[3-Fluoro-4-(2-oxo-1,2,3,4-tetrahydro-pyrido[2,3-d]pyrimidin-5-yloxy)-phenyl]-3-(3-trifluoromethyl-phenyl)-urea]
10 to 100		O=C(Nc1ccc(Oc2ccnc3c2CN(CC(F)(F)F)C(=O)N3)c(F)c1)c1cccn(-c2ccc(F)cc2)c1=O [Example 85, N-(3-fluoro-4-{[2-oxo-3-(2,2,2-trifluoroethyl)-1,2,3,4-tetrahydropyrido[2,3-d]pyrimidin-5-yl]oxy}phenyl)-1-(4-fluorophenyl)-2-oxo-1,2-dihydropyridine-3-carboxamide]
10 to 100		Cc1cccc(C(=O)Nc2ccc(Oc3ccnc4c3CNC(=O)N4)c(F)c2)c1 [Example 97, N-{3-fluoro-4-[(2-oxo-1,2,3,4-tetrahydropyrido[2,3-d]pyrimidin-5-yl)oxy]phenyl}-3-methylbenzamide]
< 10		O=C1NCc2c(Oc3ccc(NC(=O)c4ccc(Br)cc4)cc3F)ccnc2N1 [Example 99, 4-bromo-N-{3-fluoro-4-[(2-oxo-1,2,3,4-tetrahydropyrido[2,3-d]pyrimidin-5-yl)oxy]phenyl}benzamide]
100 to 1000		Cc1ccc(Nc2ccnc3c2CNC(=O)N3)cc1Br [Example 194, 5-(3-Bromo-4-methyl-phenylamino)-3,4-dihydro-1H-pyrido[2,3-d]pyrimidin-2-one]
10 to 100		COc1cccc(C(=O)Nc2ccc(Oc3ccnc4c3CNC(=O)N4)c(F)c2)c1 [Example 96, N-{3-fluoro-4-[(2-oxo-1,2,3,4-tetrahydropyrido[2,3-d]pyrimidin-5-yl)oxy]phenyl}-3-methoxybenzamide]
10 to 100		CCN1Cc2c(Oc3ccc(NC(=O)Nc4ccc5c(c4)OCO5)cc3F)ccnc2NC1=O [Example 263, 1-Benzo[1,3]dioxol-5-yl-3-[4-(3-ethyl-2-oxo-1,2,3,4-tetrahydro-pyrido[2,3-d]pyrimidin-5-yloxy)-3-fluoro-phenyl]-urea]
< 10		CC(C)c1ccc(NC(=O)Nc2ccc(Oc3ccnc4c3CNC(=O)N4)c(F)c2)cc1 [Example 273, 1-[3-Fluoro-4-(2-oxo-1,2,3,4-tetrahydro-pyrido[2,3-d]pyrimidin-5-yloxy)-phenyl]-3-(4-isopropyl-phenyl)-urea]
< 10		O=C1NCc2c(Oc3ccc(NC(=O)c4cccn(-c5ccc(F)cc5)c4=O)cc3F)ccnc2N1 [Example 59, N-{3-fluoro-4-[(2-oxo-1,2,3,4-tetrahydropyrido[2,3-d]pyrimidin-5-yl)oxy]phenyl}-1-(4-fluorophenyl)-2-oxo-1,2-dihydropyridine-3-carboxamide]
100 to 1000		CCN1Cc2c(Oc3ccc(NC(=O)Nc4c(-c5ccccc5)noc4C)cc3F)ccnc2NC1=O [Example 266, 1-[4-(3-Ethyl-2-oxo-1,2,3,4-tetrahydro-pyrido[2,3-d]pyrimidin-5-yloxy)-3-fluoro-phenyl]-3-(5-methyl-3-phenyl-isoxazol-4-yl)-urea]
10 to 100		O=C(Nc1cccc(F)c1)Nc1ccc(Oc2ccnc3c2CNC(=O)N3)c(F)c1 [Example 269, 1-[3-Fluoro-4-(2-oxo-1,2,3,4-tetrahydro-pyrido[2,3-d]pyrimidin-5-yloxy)-phenyl]-3-(3-fluoro-phenyl)-urea]
< 10		CCN1Cc2c(Oc3ccc(NC(=O)c4cccn(-c5ccc(F)cc5)c4=O)cc3F)ccnc2NC1=O [Example 84, N-{4-[(3-ethyl-2-oxo-1,2,3,4-tetrahydropyrido[2,3-d]pyrimidin-5-yl)oxy]-3-fluorophenyl}-1-(4-fluorophenyl)-2-oxo-1,2-dihydropyridine-3-carboxamide]
	10 to 100	COc1ccc(CN2Cc3c(-c4ccc(C(=O)NCc5ccc(F)c(OC)c5)s4)ccnc3NC2=O)cc1 [Example 129, N-(4-fluoro-3-methoxybenzyl)-5-[3-(4-methoxybenzyl)-2-oxo-1,2,3,4-tetrahydropyrido[2,3-d]pyrimidin-5-yl]thiophene-2-carboxamide]
	10 to 100	COc1ccc(CN2Cc3c(Nc4ccc(NC(=O)c5ccc(F)cc5C(F)(F)F)cc4F)ccnc3NC2=O)cc1 [Example 112, 4-fluoro-N-(3-fluoro-4-{[3-(4-methoxybenzyl)-2-oxo-1,2,3,4-tetrahydropyrido[2,3-d]pyrimidin-5-yl]amino}phenyl)-2-(trifluoromethyl)benzamide]
	10 to 100	O=C(Nc1ccc(Nc2ccnc3c2CN(CCCN2CCCC2=O)C(=O)N3)cc1)c1ccc(F)cc1C(F)(F)F [Example 31, 4-fluoro-N-(4-(2-oxo-3-(3-(2-oxopyrrolidin-1-yl)propyl)-1,2,3,4-tetrahydropyrido [2,3-d]pyrimidin-5-ylamino)phenyl)-2-(trifluoromethyl) benzamide]
	10 to 100	O=C(Nc1ccc(Nc2ccnc3c2CN(c2ccccc2)C(=O)N3)cc1)c1ccc(F)cc1C(F)(F)F [Example 27, 4-fluoro-N-(4-(2-oxo-3-phenyl-1,2,3,4-tetrahydropyrido [2,3-d]pyrimidin-5-ylamino)phenyl)-2-(trifluoromethyl) benzamide]
	100 to 1000	COc1ccc(CN2Cc3c(Nc4ccc(NC(=O)c5ccccc5)cc4)ccnc3NC2=O)cc1 [Example 2]
	< 10	CN1Cc2c(Nc3ccc(NC(=O)c4ccc(F)cc4C(F)(F)F)cc3)ccnc2NC1=O [Example 21, 4-fluoro-N-(4-(3-methyl-2-oxo-1,2,3,4-tetrahydropyrido [2,3-d]pyrimidin-5-ylamino)phenyl)-2-(trifluoromethyl) benzamide]
